Test results: ChEMBL document CHEMBL5344411, “Phenotypic screening-based drug discovery of furan-2-carboxylic acid derivatives for the amelioration of type 2 diabetes mellitus (T2DM)” (Eur J Med Chem, 2023)
Blank lines part the entries; values can stand above or below the molecule they belong to. Activity calls are given as the source filed them. The rule behind the calls is not given here.

Columns and labels:
[1] = test system: Hepatocyte; assay: Inhibition of gluconeogenesis in Sprague-Dawley rat hepatocytes at 10 uM incubated for 1.5 hrs followed by sodium pyruvate and sodium lactate addition and measured after 4 hrs by colorimetric analysis relative to control; assay type: functional; details: time 5.5 hrs
[2] = test system: Mus musculus; assay: Antihyperglycemic activity in diabetic ob/ob mouse assessed as reduction in non-fasting blood glucose level at 5 mg/kg administered via gavage qd for 24 days and measured on day 24; assay type: functional; details: po, 576 h, time 24 day
[3] = Half life in CD-1 mouse at 3 mg/kg, po by LC-MS/MS analysis; assay type: ADME, organism-based; details: in vivo
[4] = AUC(last) in CD-1 mouse at 1 mg/kg, po by LC-MS/MS analysis; assay type: ADME, organism-based; design: dose 1 mg/kg, route po; details: in vivo
[5] = test system: Mus musculus; assay: Antihyperglycemic activity in diabetic ob/ob mouse assessed as reduction in fasting blood glucose level at 5 mg/kg administered via gavage qd for 24 days and measured on day 24; assay type: functional; details: po, 576 h, time 24 day
[6] = Observed AUCinfinity in CD-1 mouse at 10 mg/kg, po by LC-MS/MS analysis; assay type: ADME, organism-based; design: dose 10 mg/kg, route po; details: in vivo
[7] = Observed MRTinfinity in CD-1 mouse at 3 mg/kg, po by LC-MS/MS analysis; assay type: ADME, organism-based; details: in vivo
[8] = Oral bioavailability in CD-1 mouse at 10 mg/kg by LC-MS/MS analysis; assay type: ADME, organism-based; details: in vivo
[9] = Observed volume of distribution at steady state in CD-1 mouse at 1 mg/kg, iv by LC-MS/MS analysis; assay type: ADME, organism-based; details: in vivo, read-out: Vdss
[10] = Tmax in CD-1 mouse at 10 mg/kg, po by LC-MS/MS analysis; assay type: ADME, organism-based; details: in vivo
[11] = Cmax in CD-1 mouse at 10 mg/kg, po by LC-MS/MS analysis; assay type: ADME, organism-based; design: dose 10 mg/kg, route po; details: in vivo
[12] = Observed AUCinfinity in CD-1 mouse at 1 mg/kg, po by LC-MS/MS analysis; assay type: ADME, organism-based; design: dose 1 mg/kg, route po; details: in vivo
[13] = Observed AUCinfinity in CD-1 mouse at 30 mg/kg, po by LC-MS/MS analysis; assay type: ADME, organism-based; design: dose 30 mg/kg, route po; details: in vivo
[14] = Observed MRTinfinity in CD-1 mouse at 30 mg/kg, po by LC-MS/MS analysis; assay type: ADME, organism-based; details: in vivo
[15] = test system: Mus musculus; assay: Inhibition of gluconeogenesis in CD-1 mouse assessed as decrease in blood glucose level at 50 mg/kg administered via gavage at 1 hr prior to pyruvate sodium challenge and measured for 2 hrs by pyruvate tolerance test; assay type: functional, organism-based; details: time 3.0 hrs
[16] = test system: Hepatocyte; assay: Inhibition of gluconeogenesis in Sprague-Dawley rat hepatocytes at 3 uM incubated for 1.5 hrs followed by sodium pyruvate and sodium lactate addition and measured after 4 hrs by colorimetric analysis relative to control; assay type: functional; details: time 5.5 hrs
[17] = test system: Mus musculus; assay: Inhibition of gluconeogenesis in CD-1 mouse assessed as decrease in blood glucose level at 25 mg/kg administered via gavage at 1 hr prior to pyruvate sodium challenge and measured for 2 hrs by pyruvate tolerance test; assay type: functional, organism-based; details: time 3.0 hrs
[18] = test system: Hepatocyte; assay: Inhibition of gluconeogenesis in Sprague-Dawley rat hepatocytes at 1 uM incubated for 1.5 hrs followed by sodium pyruvate and sodium lactate addition and measured after 4 hrs by colorimetric analysis relative to control; assay type: functional; details: time 5.5 hrs
[19] = AUC(last) in CD-1 mouse at 10 mg/kg, po by LC-MS/MS analysis; assay type: ADME, organism-based; design: dose 10 mg/kg, route po; details: in vivo
[20] = Observed MRTinfinity in CD-1 mouse at 1 mg/kg, iv by LC-MS/MS analysis; assay type: ADME, organism-based; details: in vivo
[21] = Observed AUCinfinity in CD-1 mouse at 1 mg/kg, iv by LC-MS/MS analysis; assay type: ADME, organism-based; design: dose 1 mg/kg, route iv; details: in vivo
[22] = AUC(last) in CD-1 mouse at 1 mg/kg, iv by LC-MS/MS analysis; assay type: ADME, organism-based; design: dose 1 mg/kg, route iv; details: in vivo
[23] = AUC(last) in CD-1 mouse at 30 mg/kg, po by LC-MS/MS analysis; assay type: ADME, organism-based; design: dose 30 mg/kg, route po; details: in vivo
[24] = Oral bioavailability in CD-1 mouse at 1 mg/kg by LC-MS/MS analysis; assay type: ADME, organism-based; details: in vivo
[25] = Observed MRTinfinity in CD-1 mouse at 1 mg/kg, po by LC-MS/MS analysis; assay type: ADME, organism-based; details: in vivo
[26] = Cmax in CD-1 mouse at 3 mg/kg, po by LC-MS/MS analysis; assay type: ADME, organism-based; design: dose 3 mg/kg, route po; details: in vivo
[27] = Half life in CD-1 mouse at 30 mg/kg, po by LC-MS/MS analysis; assay type: ADME, organism-based; details: in vivo
[28] = AUC(last) in CD-1 mouse at 3 mg/kg, po by LC-MS/MS analysis; assay type: ADME, organism-based; design: dose 3 mg/kg, route po; details: in vivo
[29] = Cmax in CD-1 mouse at 1 mg/kg, po by LC-MS/MS analysis; assay type: ADME, organism-based; design: dose 1 mg/kg, route po; details: in vivo
[30] = Tmax in CD-1 mouse at 1 mg/kg, po by LC-MS/MS analysis; assay type: ADME, organism-based; details: in vivo
[31] = Half life in CD-1 mouse at 1 mg/kg, iv by LC-MS/MS analysis; assay type: ADME, organism-based; details: in vivo
[32] = Observed clearance in CD-1 mouse at 1 mg/kg, iv by LC-MS/MS analysis; assay type: ADME, organism-based; details: in vivo
[33] = Observed AUCinfinity in CD-1 mouse at 3 mg/kg, po by LC-MS/MS analysis; assay type: ADME, organism-based; design: dose 3 mg/kg, route po; details: in vivo
[34] = Oral bioavailability in CD-1 mouse at 3 mg/kg by LC-MS/MS analysis; assay type: ADME, organism-based; details: in vivo
[35] = Half life in CD-1 mouse at 1 mg/kg, po by LC-MS/MS analysis; assay type: ADME, organism-based; details: in vivo
[36] = Oral bioavailability in CD-1 mouse at 30 mg/kg by LC-MS/MS analysis; assay type: ADME, organism-based; details: in vivo
[37] = test system: Hepatocyte; assay: Inhibition of gluconeogenesis in Sprague-Dawley rat hepatocytes at 0.3 uM incubated for 1.5 hrs followed by sodium pyruvate and sodium lactate addition and measured after 4 hrs by colorimetric analysis relative to control; assay type: functional; details: time 5.5 hrs
[38] = Toxicity in diabetic ob/ob mouse assessed as effect on daily food intake at 5 mg/kg administered via gavage qd for 24 days; assay type: organism-based; details: in vivo, po, 576 h, time 24 day
[39] = Tmax in CD-1 mouse at 30 mg/kg, po by LC-MS/MS analysis; assay type: ADME, organism-based; details: in vivo
[40] = Cmax in CD-1 mouse at 30 mg/kg, po by LC-MS/MS analysis; assay type: ADME, organism-based; design: dose 30 mg/kg, route po; details: in vivo
[41] = Toxicity in diabetic ob/ob mouse assessed as effect on body weight at 5 mg/kg administered via gavage qd for 24 days; assay type: organism-based; details: in vivo, po, 576 h, time 24 day
[42] = Half life in CD-1 mouse at 10 mg/kg, po by LC-MS/MS analysis; assay type: ADME, organism-based; details: in vivo
[43] = Observed MRTinfinity in CD-1 mouse at 10 mg/kg, po by LC-MS/MS analysis; assay type: ADME, organism-based; details: in vivo
[44] = Tmax in CD-1 mouse at 3 mg/kg, po by LC-MS/MS analysis; assay type: ADME, organism-based; details: in vivo

Compound: C=CCc1cccc(OC)c1OCc1ccc(C(=O)O)o1
fold change (FC) [1]: 0.78

Compound: C=CCc1ccc(OCc2ccc(C(=O)N3CCN(C)CC3)o2)c(OC)c1
fold change (FC) [1]: 0.98

Compound: CCCc1ccc(OCc2ccc(C(=O)O)o2)c(OCC2CC2)c1
fold change (FC) [1]: 1.16

half-life [3]: 2.26 h | AUC(0-t) [4]: 678 ng·h/mL | AUC(0-inf) [6]: 9620 ng·h/mL | MRT inf [7]: 2.74 h | bioavailability [8]: 78.9% | Vd [9]: 0.65 L/kg | Tmax [10]: 0.25 h | Cmax [11]: 7580 ng/mL | AUC(0-inf) [12]: 709 ng·h/mL | AUC(0-inf) [13]: 52800 ng·h/mL | MRT inf [14]: 1.7 h | AUC(0-t) [19]: 9590 ng·h/mL | MRT inf [20]: 0.798 h | AUC(0-inf) [21]: 1250 ng·h/mL | AUC(0-t) [22]: 1220 ng·h/mL | AUC(0-t) [23]: 52700 ng·h/mL | bioavailability [24]: 55.7% | MRT inf [25]: 2.07 h | Cmax [26]: 1460 ng/mL | half-life [27]: 3.15 h | AUC(0-t) [28]: 2430 ng·h/mL | Cmax [29]: 547 ng/mL | Tmax [30]: 0.25 h | half-life [31]: 0.828 h | clearance [32]: 13.5 mL/min/kg | AUC(0-inf) [33]: 2480 ng·h/mL | bioavailability [34]: 66.7% | half-life [35]: 1.8 h | bioavailability [36]: 144% | Tmax [39]: 0.25 h | Cmax [40]: 41000 ng/mL | half-life [42]: 3.12 h | MRT inf [43]: 2.31 h | Tmax [44]: 0.25 h
Compound: CCCc1ccc(OCc2ccc(C(=O)O)o2)cc1OC
inhibition in vivo at 5 mg/kg [2]: 34.9% | inhibition in vivo at 5 mg/kg [5]: 40.5% | inhibition [15]: Active | fold change (FC) [16]: 0.16 | inhibition [17]: Active | fold change (FC) [18]: 0.64 | fold change (FC) [1]: 0.03 | fold change (FC) [37]: 0.75 | Activity [38]: Non-Toxic | Activity [41]: Non-Toxic

Compound: C=CCc1ccc(OC)c(OCc2ccc(C(=O)O)o2)c1
fold change (FC) [1]: 1

Compound: C=CCc1ccc(OCc2ccc(C(=O)NCc3ccccc3)o2)c(OC)c1
fold change (FC) [1]: 0.97

Compound: COc1cc(/C=C/C(=O)N(C)C)ccc1OCc1ccc(C(=O)O)o1
fold change (FC) [1]: 0.77

Compound: C=CCc1ccc(OCc2cccc(C(=O)O)c2)c(OC)c1
fold change (FC) [1]: 1.06

Compound: C/C=C/c1ccc(OCc2ccc(C(=O)O)o2)c(OC)c1
fold change (FC) [1]: 0.93

Compound: C=CCc1ccc(OCc2cccc(C(=O)O)n2)c(OC)c1
fold change (FC) [1]: 1.11

Compound: CCCOc1cc(CCC)ccc1OCc1ccc(C(=O)O)o1
fold change (FC) [1]: 0.72

Compound: CCCc1ccc(OCc2ccc(C(=O)O)o2)c(OC(C)C)c1
fold change (FC) [1]: 1.25

Compound: C=CCc1ccc(OCc2ccc(C(=O)O)s2)c(OC)c1
fold change (FC) [1]: 1.05

Compound: CCCc1ccc(OC)c(OCc2ccc(C(=O)O)o2)c1
fold change (FC) [1]: 1.18

Compound: CCCc1ccc(OCc2ccc(C(=O)O)o2)c(OCCOC)c1
fold change (FC) [1]: 0.72

Compound: CCC(=O)c1ccc(OCc2ccc(C(=O)O)o2)c(OC)c1
fold change (FC) [1]: 0.79

Compound: CCCc1ccc(OCc2ccc(C(=O)O)o2)c(OCC)c1
fold change (FC) [1]: 0.77

Compound: C=CCc1ccc(OCc2ccc(C(=O)NCCO)o2)c(OC)c1
fold change (FC) [1]: 0.82

Compound: CNC(=O)CCc1ccc(OCc2ccc(C(=O)O)o2)c(OC)c1
fold change (FC) [1]: 0.98
